Results from patent publication US12358915B2, “METTL3 inhibitory compounds” (STORM THERAPEUTICS LTD., priority 2019, dated 2025).
Where a name gives a salt, the structure may show the parent alone.

molecular target: T1, METTL3/14 (Homo sapiens, UniProt Q86U44); assay: METTL3/14 methyltransferase assay (METTL3_14 RFMS, RapidFire mass spectrometry); assay type: biochemical; details: 5 nM METTL3/14, 0.2 μM RNA substrate, 0.5 μM SAM; lower limit of the assay IC50=5 nM; Compounds 1-62; read-out: METTL3_14 RFMS IC50;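 also: recombinant His-tagged METTL3 with FLAG-tagged METTL14 from baculovirus, SAH product quantified by mass spectrometry against isotope-labelled internal standards, 60 min at room temperature, scaled between no-RNA and DMSO-only wells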
T1 construct: The enzyme used was full-length his-tagged METTL3; His; made in house
T1 sequence (Q86U44 whole entry): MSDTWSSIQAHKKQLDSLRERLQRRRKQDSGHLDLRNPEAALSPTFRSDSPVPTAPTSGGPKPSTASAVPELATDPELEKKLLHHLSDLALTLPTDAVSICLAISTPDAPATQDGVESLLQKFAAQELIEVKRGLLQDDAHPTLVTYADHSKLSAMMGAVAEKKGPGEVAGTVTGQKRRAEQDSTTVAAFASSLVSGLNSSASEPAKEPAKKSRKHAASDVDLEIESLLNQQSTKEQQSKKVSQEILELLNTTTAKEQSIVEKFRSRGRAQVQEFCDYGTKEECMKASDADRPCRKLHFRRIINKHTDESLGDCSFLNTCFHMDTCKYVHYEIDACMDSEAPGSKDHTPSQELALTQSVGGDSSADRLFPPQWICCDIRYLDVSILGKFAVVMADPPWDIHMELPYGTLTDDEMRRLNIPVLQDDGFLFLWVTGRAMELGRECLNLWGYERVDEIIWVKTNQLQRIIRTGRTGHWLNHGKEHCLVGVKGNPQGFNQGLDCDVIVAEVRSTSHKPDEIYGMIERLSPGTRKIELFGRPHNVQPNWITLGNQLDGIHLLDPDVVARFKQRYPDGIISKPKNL
T1 sequence (Q9HCE5 whole entry partner): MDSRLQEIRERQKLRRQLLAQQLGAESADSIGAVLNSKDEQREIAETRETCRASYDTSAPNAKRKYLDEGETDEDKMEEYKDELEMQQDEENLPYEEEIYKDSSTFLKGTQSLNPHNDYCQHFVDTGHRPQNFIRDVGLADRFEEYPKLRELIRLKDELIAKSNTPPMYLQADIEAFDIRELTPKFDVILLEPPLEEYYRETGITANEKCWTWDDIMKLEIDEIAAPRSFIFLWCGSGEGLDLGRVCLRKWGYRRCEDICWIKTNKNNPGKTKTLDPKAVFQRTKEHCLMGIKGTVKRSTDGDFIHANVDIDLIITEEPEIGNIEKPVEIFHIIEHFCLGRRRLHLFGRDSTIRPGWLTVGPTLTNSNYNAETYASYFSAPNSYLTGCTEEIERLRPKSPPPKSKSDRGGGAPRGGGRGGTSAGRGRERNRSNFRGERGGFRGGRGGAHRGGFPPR
Procedure: The enzyme used was full-length his-tagged METTL3 co-expressed with full length FLAG-tagged METTL14 in a baculovirus expression system. […] After termination, plates were sealed, centrifuged and stored at 4° C. until analysis. […] Mass Spectrometry Analysis RNA methyltransferase activity was measured label free using the RapidFireTM mass spectrometry (RF/MS) platform. Stopped and stable assay plates were analyzed on the Agilent RF300 integrated autosampler/solid-phase extraction (SPE) system coupled to an ABSciex 4000 mass spectrometer for the generation of the product S-adenosyl homocysteine (SAH) and normalized to the ratio of signal of the two internal product standards, respectively. Solvent A was water containing 0.1% (v/v) TCA. Solvent B was acetonitrile/0.1% ammonium acetate (8:2, v/v). More specifically, plates were centrifuged at 4350 rpm for 10 min, samples were aspirated under vacuum for 600 ms, then loaded onto a C18 solid-phase extraction cartridge and washed for 3 s with solvent A at a flow rate of 1.5 mL/min. Retained product and internal standards were eluted with solvent B at a flow rate of 1 mL/min for 3 s and finally the cartridge was reequilibrated with solvent A for 500 ms.

SMILES	IC50 [nM]
O=C(NCc1cn2cc(CNCC(F)(F)F)ccc2n1)c1cccc2[nH]ncc12 [Compound 46, N-[(6-{[(2,2,2-trifluoroethyl)amino]methyl}imidazo[1,2-a]pyridin-yl)methyl]-1H-indazole-4-carboxamide]	2210
COc1ccn2cc(CNC(=O)c3cc(=O)n4ccccc4n3)nc2c1 [Compound 25, N-({7-methoxyimidazo[1,2-a]pyridin-2-yl}methyl)-4-oxo-4H-pyrido[1,2-a]pyrimidine-2-carboxamide]	543
Cc1ccc2nc(COC(=O)c3cccc4[nH]ncc34)cn2c1 [Compound 41, {6-methylimidazo[1,2-a]pyridin-2-yl}methyl 1H-indazole-4-carboxylate hydrochloride]	1340
O=Cc1ccc2nc(CNC(=O)c3cc(=O)n4ccccc4n3)cn2c1 [Example 49, N-[(6-formylimidazo[1,2-a]pyridin-2-yl)methyl]-4-oxo-pyrido[1,2-a]pyrimidine-2-carboxamide]	1040
O=C(NCc1cn2ccccc2n1)c1cc(=O)c2ccccc2o1 [Compound 13]	4180

same assay, conditions: 5 nM METTL3/14, 0.2 μM RNA substrate, 0.5 μM SAM; lower limit of the assay IC50=5 nM; Compounds 63-265; read-out: METTL3_14 RFMS IC50

SMILES	IC50 [nM]
O=C(NCc1cn2cc(CNc3ccc(F)cn3)ccc2n1)c1cc(=O)n2ccccc2n1 [Compound 196, N-[(6-{[(5-fluoropyridin-2-yl)amino]methyl}imidazo[1,2-a]pyridin-2-yl)methyl]-4-oxo-4H-pyrido[1,2-a] pyrimidine-2-carboxamide]	597
O=C(NCc1cn2cc(CNCC3CCCOC3)ccc2n1)c1cc(=O)n2ccccc2n1 (stereo not drawn) [Compound 90, N-{[6-({[(oxan-3-yl)methyl]amino}methyl)imidazo [1,2-a]pyridin-2-yl]methyl}-4-oxo-4H-pyrido[1,2-a] pyrimidine-2-carboxamide]	79.2
O=C(NCc1cn2cc(CNC(C3CC3)C3CC3)ccc2n1)c1cc(=O)n2ccccc2n1 [Compound 135, N-[(6-{[(dicyclopropyl-methyl)amino]methyl}imidazo [1,2-a]pyridin-2-yl)methyl]-4-oxo-4H-pyrido [1,2-a]pyrimidine-2-carboxamide]	18.3
O=C(NCc1cn2cc(CNCC(F)F)ccc2n1)c1cc(=O)n2ccccc2n1 [Compound 119, N-[(6-{[(2,2-difluoroethyl)amino]methyl}imidazo[1,2-a]pyridin-2-yl)methyl]-4-oxo-4H-pyrido[1,2-a] pyrimidine-2-carboxamide]	578
O=C(NCc1cn2cc(CNCC3COCCO3)ccc2n1)c1cc(=O)n2ccccc2n1 (stereo not drawn) [Compound 108, N-{[6-({[(1,4-dioxan-2-yl)methyl]amino}methyl)imidazo [1,2-a]pyridin-2-yl]methyl}-4-oxo-4H-pyrido[1,2-a] pyrimidine-2-carboxamide]	241
O=C(NCc1cn2cc(CNCC3CCCCC3)ccc2n1)c1cc(=O)c2ccccc2o1 [Compound 170, N-[(6-{[(cyclohexylmethyl)amino]methyl}imidazo[1,2-a]pyridin-2-yl)methyl]-4-oxo-4H-chromene-2-carboxamide]	29.4
O=C(NCc1cn2cc(CNC3(C4CCCCC4)CC3)ccc2n1)c1cc(=O)n2ccccc2n1 [Compound 98, N-[(6-{[(1-cyclohexyl-cyclopropyl)amino]methyl}imidazo[1,2-a]pyridin-2-yl)methyl]-4-oxo-4H-pyrido [1,2-a]pyrimidine-2-carboxamide]	45.6
O=C(NCc1cn2cc([C@H]3COC[C@@H](C4CCCCC4)N3)ccc2n1)c1cc(=O)c2ccccc2o1 [Example 264, N-({6-[(3S,5R)-5-cyclohexylmorpholin-3-yl]imidazo[1,2-a]pyridin-2-yl}methyl)-4-oxo-4H-chromene-2-carboxamide]	195
O=C(NCc1cn2cc(CNCc3cncs3)ccc2n1)c1cc(=O)n2ccccc2n1 [Compound 99, 4-oxo-N-{[6-({[(1,3-thiazol-5-yl)methyl]amino}methyl)imidazo[1,2-a]pyridin-2-yl]methyl}-4H-pyrido[1,2-a] pyrimidine-2-carboxamide]	318
O=C(NCc1cn2cc(CNCC3CCCCC3)ccc2n1)c1cc(Br)cc2[nH]ncc12 [Compound 187, 6-bromo-N-[(6-{[(cyclohexylmethyl)amino]methyl}imidazo[1,2-a]pyridin-2-yl)methyl]-1H-indazole-4-carboxamide]	44.1
O=C(NCc1cn2cc(CN3CCc4ccccc4C3)ccc2n1)c1cc(=O)n2ccccc2n1 [Compound 131, 4-oxo-N-({6-[(1,2,3,4-tetrahydroisoquinolin-2-yl)methyl]imidazo [1,2-a]pyridin-2-yl}methyl)-4H-pyrido [1,2-a]pyrimidine-2-carboxamide]	87.7
O=C(NCc1cn2cc(CNCc3ccccc3F)ccc2n1)c1cc(=O)n2ccccc2n1 [Compound 77, N-{[6-({[(2-fluorophenyl)methyl]amino}methyl)imidazo [1,2-a]pyridin-2-yl]methyl}-4-oxo-4H-pyrido[1,2-a]pyrimidine-2-carboxamide]	84
O=C(NCc1cn2cc(CN3CCC(C(F)(F)F)CC3)ccc2n1)c1cc(=O)n2ccccc2n1 [Compound 138, 4-oxo-N-[(6-{[4-(trifluoromethyl)piperidin-1-yl]methyl}imidazo [1,2-a]pyridin-2-yl)methyl]-4H-pyrido[1,2-a] pyrimidine-2-carboxamide]	31.4
O=C(NCc1cn2cc(CNCC3CCCNC3)ccc2n1)c1cc(=O)n2ccccc2n1 (stereo not drawn) [Compound 239, 4-oxo-N-{[6-({[(piperidin-3-yl)methyl]amino}methyl)imidazo[1,2-a]pyridin-2-yl]methyl}-4H-pyrido[1,2-a]pyrimidine-2-carboxamide]	513
O=C(NCc1cn2cc(C3(NCC4CCCCC4)CC3)ccc2n1)c1cc(=O)n2ccccc2n1 [Compound 245, N-[(6-{1-[(cyclohexylmethyl)amino]cyclopropyl}imidazo[1,2-a]pyridin-2-yl)methyl]-4-oxo-4H-pyrido[1,2-a]pyrimidine-2-carboxamide]	735
O=C(NCc1cn2cc(CNC[C@H]3CCCO3)ccc2n1)c1cc(=O)n2ccccc2n1 [Compound 118, 4-oxo-N-({6-[({[(2R)-oxolan-2-yl]methyl}amino)methyl]imidazo[1,2-a]pyridin-2-yl}methyl)-4H-pyrido[1,2-a]pyrimidine-2-carboxamide]	87.2
COC(=O)C(NCc1ccc2nc(CNC(=O)c3cc(=O)n4ccccc4n3)cn2c1)C(C)C (stereo not drawn) [Compound 123, methyl 3-methyl-2-[({2-[({4-oxo-4H-pyrido[1,2-a]pyrimidin-2-yl}formamido)methyl]imidazo [1,2-a]pyridin-6-yl}methyl)amino] butanoate]	332

same assay, conditions: 5 nM METTL3/14, 0.2 μM RNA substrate, 0.5 μM SAM; lower limit of the assay IC50=5 nM; Compounds 266-351; read-out: METTL3_14 RFMS IC50

SMILES	IC50 [nM]
O=C(NCc1cn2cc(CNCC3CC4C=CC3C4)ccc2n1)c1cc(=O)n2ccccc2n1 (stereo not drawn) [Compound 346, N-[(6-{[({bicyclo[2.2.1]hept-5-en-2-yl}methyl)amino]methyl}imidazo[1,2-a]pyridin-2-yl)methyl]-4-oxo-4H-pyrido[1,2-a]pyrimidine-2-carboxamide]	7.68
O=C(NCc1cn2cc(CNC[C@@H]3C[C@H]4CC[C@@H]3C4)ccc2n1)c1cc(=O)n2ccccc2n1 [Compound 347, N-({6-[({[(1R,2R,4S)-bicyclo[2.2.1]heptan-2-yl]methyl}amino)methyl]imidazo[1,2-a]pyridin-2-yl}methyl)-4-oxo-4H-pyrido[1,2-a]pyrimidine-2-carboxamide]	7.5
